Assay results published in PubChem BioAssay AID743506 (Broad Institute, 2014).
Active and inactive are the calls of the source.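 How the source made its calls: active means compounds that block the bursicon-driven reporter signal with IC50 below 35000 nM; inactive means the rest.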

The compounds below were run against Bursicon receptor (LGR2/rickets), Drosophila melanogaster (assay: LGR2 bursicon receptor antagonists, dose response, cell-based, HEK293, CRE-luciferase, beta-gal normalized, dry powder, set 3 (AID 743506)). Conditions: bursicon-stimulated, 4 h.

IC50	Compound
< 35 µM	COc1ccc(NC(=O)N(C)C[C@@H]2OCCCC[C@H](C)Oc3ccc(NC(=O)C4CCCCC4)cc3C(=O)N([C@H](C)CO)C[C@@H]2C)cc1
< 35 µM	C[C@H](CO)N1C[C@H](C)[C@H](CN(C)C(=O)Nc2ccc3c(c2)OCO3)OCCCC[C@H](C)Oc2ccc(NC(=O)C3CCCCC3)cc2C1=O
< 35 µM	C[C@H](CO)N1C[C@H](C)[C@H](CN(C)C(=O)Nc2ccccc2)OCCCC[C@H](C)Oc2ccc(NC(=O)C3CCCCC3)cc2C1=O
< 35 µM	C[C@H](CO)N1C[C@H](C)[C@H](CN(C)C(=O)Nc2ccc(F)cc2)OCCCC[C@H](C)Oc2ccc(NC(=O)C3CCCCC3)cc2C1=O
> 35 µM (inactive)	C[C@@H]1CCCCO[C@H](CN(C)C(=O)Nc2ccc(F)cc2)[C@H](C)CN([C@@H](C)CO)C(=O)c2cc(NC(=O)C3CCCCC3)ccc2O1
